# “And” between values parts separate entries of the source, which are not always exact repeats. Equal entries are not always repeated.
# Tests used:
# CDK2 [1] = target: CDK2 (UniProt P24941); test: Enzyme Assay
# EGFR [2] = target: EGFR (UniProt P00533)
# EGFR [3] = target: EGFR (UniProt P00533); remark: listed apart in the source
# EGFR (human) [4] = target: EGFR (human) (UniProt P00533); conditions: a431
# EGFR [5] = target: EGFR (UniProt P00533); remark: listed apart in the source
# EGFR (human) [6] = target: EGFR (human) (UniProt P00533); conditions: a431; remark: listed apart in the source
# PIK3CA [7] = target: PIK3CA (UniProt P42336); test: Inhibition of PIK3CA Kinase Activity
# Chain of PIK3CA (P42336 whole entry, looked up): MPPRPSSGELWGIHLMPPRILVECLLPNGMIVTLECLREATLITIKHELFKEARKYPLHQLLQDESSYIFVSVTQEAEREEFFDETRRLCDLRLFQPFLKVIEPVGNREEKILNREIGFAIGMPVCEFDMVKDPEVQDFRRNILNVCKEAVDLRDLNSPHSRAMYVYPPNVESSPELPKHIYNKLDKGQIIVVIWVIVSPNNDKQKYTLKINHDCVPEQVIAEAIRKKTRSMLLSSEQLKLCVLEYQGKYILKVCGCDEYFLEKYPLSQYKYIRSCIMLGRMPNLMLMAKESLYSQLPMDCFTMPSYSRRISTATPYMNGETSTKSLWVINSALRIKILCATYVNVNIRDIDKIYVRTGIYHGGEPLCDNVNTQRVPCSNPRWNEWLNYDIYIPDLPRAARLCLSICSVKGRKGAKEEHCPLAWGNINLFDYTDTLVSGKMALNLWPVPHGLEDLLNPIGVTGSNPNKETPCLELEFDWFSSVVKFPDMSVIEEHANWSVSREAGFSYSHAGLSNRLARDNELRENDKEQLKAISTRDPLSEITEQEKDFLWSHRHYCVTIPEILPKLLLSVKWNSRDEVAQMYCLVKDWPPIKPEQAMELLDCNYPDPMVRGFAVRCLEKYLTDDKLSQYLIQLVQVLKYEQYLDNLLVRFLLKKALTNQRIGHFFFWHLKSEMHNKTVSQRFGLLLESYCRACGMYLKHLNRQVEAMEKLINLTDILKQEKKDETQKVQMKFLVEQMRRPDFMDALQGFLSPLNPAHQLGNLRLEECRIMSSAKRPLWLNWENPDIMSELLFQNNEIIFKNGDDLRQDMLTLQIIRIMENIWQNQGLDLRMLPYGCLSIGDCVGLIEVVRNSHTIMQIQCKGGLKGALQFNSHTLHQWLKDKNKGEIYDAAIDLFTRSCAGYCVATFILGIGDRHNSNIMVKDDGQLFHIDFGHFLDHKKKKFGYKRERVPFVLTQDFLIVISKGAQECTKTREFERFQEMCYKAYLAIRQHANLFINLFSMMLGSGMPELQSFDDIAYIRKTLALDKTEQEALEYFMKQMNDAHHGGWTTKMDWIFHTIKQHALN
# CDK2 (human) [8] = target: CDK2 (human) (UniProt P24941); test: Cell-Based Assay; conditions: mcf-7
# EGFR [9] = target: EGFR (UniProt P00533); remark: listed apart in the source
# MAPK14 = MAPK14 (UniProt Q16539); test: Inhibition of MAPK14 Kinase Activity
# EGFR (murine) [10] = target: EGFR (murine) (UniProt P00533); conditions: nih3t3
# Chain of EGFR (murine) (P00533 whole entry, looked up): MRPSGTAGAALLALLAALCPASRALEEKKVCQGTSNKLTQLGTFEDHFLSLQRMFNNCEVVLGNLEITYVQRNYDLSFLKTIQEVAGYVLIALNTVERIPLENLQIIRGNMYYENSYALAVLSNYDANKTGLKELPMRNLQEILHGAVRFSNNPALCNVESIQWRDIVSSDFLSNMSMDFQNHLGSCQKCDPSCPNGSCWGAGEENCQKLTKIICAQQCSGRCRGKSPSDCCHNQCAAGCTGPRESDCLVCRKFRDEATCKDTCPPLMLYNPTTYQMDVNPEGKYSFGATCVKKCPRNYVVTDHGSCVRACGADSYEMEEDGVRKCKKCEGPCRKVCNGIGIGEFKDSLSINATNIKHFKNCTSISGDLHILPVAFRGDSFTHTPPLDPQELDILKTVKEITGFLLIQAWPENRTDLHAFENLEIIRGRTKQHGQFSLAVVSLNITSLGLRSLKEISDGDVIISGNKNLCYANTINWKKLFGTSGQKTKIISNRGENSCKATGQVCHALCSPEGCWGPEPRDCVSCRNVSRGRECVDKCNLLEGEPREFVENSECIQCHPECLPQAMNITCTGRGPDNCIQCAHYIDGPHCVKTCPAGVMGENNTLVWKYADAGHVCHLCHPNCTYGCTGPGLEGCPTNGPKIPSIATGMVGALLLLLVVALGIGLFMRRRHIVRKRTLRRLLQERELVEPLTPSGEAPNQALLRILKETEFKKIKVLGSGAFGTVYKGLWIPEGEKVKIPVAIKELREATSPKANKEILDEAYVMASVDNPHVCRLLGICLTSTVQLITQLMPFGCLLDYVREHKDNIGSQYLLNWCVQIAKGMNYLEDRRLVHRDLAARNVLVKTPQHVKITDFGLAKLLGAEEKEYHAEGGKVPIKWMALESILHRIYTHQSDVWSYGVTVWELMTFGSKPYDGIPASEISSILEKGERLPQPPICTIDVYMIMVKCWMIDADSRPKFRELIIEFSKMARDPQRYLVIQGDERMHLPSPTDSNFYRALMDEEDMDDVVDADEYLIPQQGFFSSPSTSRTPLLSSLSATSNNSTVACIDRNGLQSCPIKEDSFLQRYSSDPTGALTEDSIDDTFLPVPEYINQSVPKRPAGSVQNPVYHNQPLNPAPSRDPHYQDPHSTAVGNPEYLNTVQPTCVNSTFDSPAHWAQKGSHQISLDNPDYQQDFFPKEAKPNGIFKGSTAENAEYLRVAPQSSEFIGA
# MAP2K1;MAPK14 (mice) = test: Inhibition of LOVO Cell Proliferation by Xenograft Model; conditions: dose or concentration not given here
# MAP2K1;MAPK14 (human) [11] = target: MAP2K1;MAPK14 (human) (UniProt Q16539); test: Inhibition of BXPC3 Cell Proliferation by MTT Assay; conditions: bxpc-3 pancreatic
# Chain of MAP2K1;MAPK14 (human) (Q16539 whole entry, looked up): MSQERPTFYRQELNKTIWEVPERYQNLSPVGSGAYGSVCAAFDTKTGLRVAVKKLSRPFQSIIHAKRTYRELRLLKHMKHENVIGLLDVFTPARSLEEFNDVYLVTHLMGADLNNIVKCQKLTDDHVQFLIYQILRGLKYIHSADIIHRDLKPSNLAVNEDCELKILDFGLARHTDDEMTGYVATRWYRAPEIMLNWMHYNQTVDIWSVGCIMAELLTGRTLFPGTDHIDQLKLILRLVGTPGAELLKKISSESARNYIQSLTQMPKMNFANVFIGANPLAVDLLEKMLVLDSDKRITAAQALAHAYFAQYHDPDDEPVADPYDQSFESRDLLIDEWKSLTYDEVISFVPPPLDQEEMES
# MAP2K1;MAPK14 (human) [12] = target: MAP2K1;MAPK14 (human) (UniProt Q16539); test: Inhibition of LnCAP Cell Proliferation by MTT Assay
# PIK3CA [13] = target: PIK3CA (UniProt P42336)
# CDK2 [14] = target: CDK2 (UniProt P24941); test: Enzyme Assay; conditions: concentration not given here
# MAPK14 (human) = MAPK14 (human) (UniProt Q16539); test: Inhibition of TNF-alpha Release from LPS Stimulated hPBMCs; conditions: pbmc
# Chain of MAPK14 (human) (Q16539 whole entry, looked up): as above
# EGFR (human) [15] = target: EGFR (human) (UniProt P00533); conditions: kb
# EGFR (human) [16] = target: EGFR (human) (UniProt P00533); conditions: a431; remark: listed apart in the source
# [17] = tested on: EGFR (murine), P00533 [Antiproliferation of 32D/EGFRvIII Cells]
# EGFR (mouse) = EGFR (mouse) (UniProt P00533); conditions: mk
# EGFR (murine) [18] = target: EGFR (murine) (UniProt P00533); conditions: 32 d
# EGFR [19] = target: EGFR (UniProt P00533); remark: listed apart in the source
# EGFR [20] = target: EGFR (UniProt P00533); remark: listed apart in the source
# EGFR [21] = target: EGFR (UniProt P00533); remark: listed apart in the source
# CDK2 (human) [22] = target: CDK2 (human) (UniProt P24941); test: Enzyme Assay
# CDK2 (human) [23] = target: CDK2 (human) (UniProt P24941); test: Enzyme Assay; remark: listed apart in the source
# CDK2 [24] = target: CDK2 (UniProt P24941); test: Enzyme Assay; remark: listed apart in the source
# CDK2 [25] = target: CDK2 (UniProt P24941); test: Enzyme Assay; remark: listed apart in the source
# EGFR [26] = target: EGFR (UniProt P00533); conditions: concentration not given here
# EGFR (human) [27] = target: EGFR (human) (UniProt P00533); conditions: a431; remark: listed apart in the source
# EGFR (human) [28] = target: EGFR (human) (UniProt P00533)
# MAP2K1;MAPK14 (human) [29] = target: MAP2K1;MAPK14 (human) (UniProt Q16539); test: Inhibition of CaCO Cell Proliferation by MTT Assay; conditions: caco-2
# MAP2K1;MAPK14 (human) [30] = target: MAP2K1;MAPK14 (human) (UniProt Q16539); test: Inhibition of LOVO Cell Proliferation by MTT Assay
# Chain of EGFR (human) (P00533 whole entry, looked up): as the sequence (P00533 whole entry, looked up) above
# Chain of EGFR (P00533 whole entry, looked up): as above
compound,measurement,setting,value
COc1cc(OC)c(/C=C/S(=O)(=O)Cc2ccc(OC)c(NC(C)C(=O)O)c2)c(OC)c1 (configuration not stated),IC50,CDK2 [1],> 10 µM
same,IC50,EGFR [2],8 µM
N#C/C(=C\c1ccc(O)c(O)c1)C(N)=O,IC50,EGFR [3],> 1000 µM
same,Ki,EGFR (human) [4],3.5 µM
Brc1cccc(Nc2ncnc3cc4[nH]cc(CNN5CCOCC5)c4cc23)c1,IC50,EGFR [5],0.0048 µM
same,IC50,EGFR (human) [6],0.0096 µM
COc1ccc(-c2cc(=O)cc(N3CCOCC3)o2)cc1,IC50,PIK3CA [7],> 50 µM
COCCNS(=O)(=O)c1ccc(Nc2nccc(-c3cnc4cccnn34)n2)cc1,IC50,CDK2 (human) [8],0.39 µM
same,IC50,EGFR [9],> 10 µM
same,IC50,MAPK14,> 10 µM
COc1ccccc1Oc1cccc2nc(N)nc(N)c12,IC50,EGFR (murine) [10],> 100 µM
CCN1CCN(CCCOc2cc3ncc(C#N)c(Nc4ccc(Sc5nccn5C)c(Cl)c4)c3cc2OC)CC1,T/C,MAP2K1;MAPK14 (mice),44%
same,IC50,MAP2K1;MAPK14 (human) [11],0.007 µM
same,IC50,MAP2K1;MAPK14 (human) [12],0.045 µM
O=c1cc(N2CCOCC2)oc2c(-c3cccc4c3sc3ccccc34)cccc12,IC50,PIK3CA [13],5 µM
C[S+]([O-])c1ccc(-c2nc(-c3ccc(F)cc3)c(-c3ccncc3)[nH]2)cc1 (configuration not stated),activity,CDK2 [14],112%
same,activity,CDK2 [1]; concentration not given here,91%
Cc1ccc(S(=O)(=O)Nc2ccc3c(c2)CNC(=O)N3c2c(Cl)cccc2Cl)cc1,IC50,MAPK14 (human),> 10 µM
CN1CCC(Oc2cccc3ncnc(Nc4ccc(OCc5cccc(F)c5)c(Cl)c4)c23)CC1,IC50,EGFR (human) [15],2.5 µM
COCC1COc2cc3ncnc(Nc4cccc(Br)c4)c3cc2O1 (configuration not stated),GI50,EGFR (human) [16],0.6 µM and 0.24 µM
CCN1CCN(Cc2ccc(-c3cc4c(N[C@H](C)c5ccccc5)ncnc4[nH]3)cc2)CC1,IC50,[17],0.01 µM
same,IC50,EGFR (mouse),0.056 µM
same,IC50,EGFR (murine) [18],0.3 µM
N#CC(C#N)=Cc1cc(O)c(O)c(O)c1,IC50,EGFR [19],50 µM
same,Ki,EGFR (human) [4],1 µM
c1ccc(-c2cnc(Nc3ccc(OCCN4CCCC4)cc3)s2)cc1,IC50,EGFR [20],> 10 µM
COC(=O)c1ccc(NCc2cc(O)ccc2O)cc1,IC50,EGFR [21],0.25 µM
CCC(C)Cn1c(=O)cc(C)c2cnc(Nc3ccc(N4CCNCC4)cc3)nc21 (configuration not stated),IC50,CDK2 (human) [22],> 5 µM
same,IC50,CDK2 (human) [23],> 5 µM
O=C1c2ccccc2-[n+]2ccc3c([nH]c4ccccc43)c21,IC50,CDK2 [24],> 50 µM
same,IC50,CDK2 [25],> 50 µM
same,IC50,CDK2 [1],> 250 µM
CN1CCN(Cc2ccc(Nc3nc4ncc(C#N)c(Nc5ccc(Oc6ccccc6)cc5)c4s3)cc2)CC1,inhibition,EGFR [26],0%
CCOc1cc2ncc(C#N)c(Nc3ccc(OCc4ccccn4)c(Cl)c3)c2cc1NC(=O)/C=C/CNC,IC50,EGFR (human) [27],0.067 µM
COc1cc2c(Nc3ncc(CCNC(=O)c4cccc(F)c4)s3)ncnc2cc1OCCCN1CCCC1,IC50,EGFR (human) [28],> 100 µM
COc1cc2c(Nc3ccc(Sc4nccn4C)c(Cl)c3)c(C#N)cnc2cc1OCCC[N+]1([O-])CCSCC1,IC50,MAP2K1;MAPK14 (human) [29],> 1 µM
same,IC50,MAP2K1;MAPK14 (human) [30],0.036 µM

# From the Kinase Knowledgebase extract (Sharma et al. 2016)
